Results: patent publication US20080085939A1, “Use Of Sphingolipids For Prevention And Treatment Of Atherosclerosis” (priority 2004, published 2008)

Tests used:
Assay type in all cases: cell-based
[1] = system: NFAT-mediated signal transduction pathway in Jurkat cells (T-cells); assay: PMA/ionomycin-induced stimulation of Jurkat cells, NFAT-luciferase reporter; conditions: 10 μg/mL sphingolipid; Jurkat pNFAT-luc; PMA 50 ng/ml and ionomycin 1 μg/ml, 6 hours; FIG. 2
Protocol: (§1) Jurkat cells (T-cells) stably transfected with pNFAT-luc (Clontech, BD Bioscience, Becton, Dickinson and Company, Franklin Lakes, N.J. USA) in which the hygromycin resistance gene was cloned were used. The cells produce the enzyme luciferase under control of the NFAT (nuclear Factor of Activated T cells) promoter. The NFAT-mediated pathways are stimulated in Jurkat cells by PMA and ionomycin. Cells were grown at 37° C. at 5% (v/v) CO2 and 100% relative humidity in medium consisting of RPMI 1640, 10 mM HEPES (N-[2-hydroxyethyl]piperazine-N′-[2-ethanesulfonic acid), 10% FCS, 2 mM L-Glutamine and 1 mM Sodium Pyruvate. The medium was changed every 3 days. Finally the cells were transferred to 96-wells plates.
A cell suspension of 5×10^5 cells/ml in medium without phenol red was transferred to 96 well microtiter plates (200 μL/well). In triplicate sphingolipids were added (1 or 10 μg/mL). After 30 min PMA (50 ng/ml) and ionomycin (1 μg/ml) was added and the cells were incubated during 6 hours. Then 60 μl cell suspension was mixed with 60 μl steady glo reagent (Promega). Luminescence was measured in a Wallac 1450 microbeta liquid scintillation counter.

[2] = system: LPS-induced TNFα release by macrophage U937 cells; assay: Effect of sphingolipids on LPS-induced TNFα release by macrophage U937 cells; conditions: differentiated U937 cells; 1 μg/ml or 10 μg/ml sphingolipid for 30 min, then LPS 1 μg/ml for 4 hours; FIG. 1
Protocol: Undifferentiated U937 cells were grown at 37° C. at 5% (v/v) CO2 and 100% relative humidity in medium consisting of RPMI 1640, and supplemented with 10% Fetal Calf Serum (FCS), 2 mM L-Glutamine, 50 μg/ml Gentamycin and 0.4% Fungizone. The cells were passaged every three days. Finally the cells were transferred to 96-wells microtiter plates. Differentiation was induced by addition of 10 ng/ml PMA (Phorbol 12-myristate 13-acetate). After 24 hours the medium was changed and refreshed every day and the differentiated macrophages were grown for another 3 days at 37° C. The above described differentiated U937 cells were treated for 30 min with 1 μg/ml or 10 μg/ml sphingolipid (1 mg/mL in ethanol). Then the cells were stimulated with LPS (1 μg/ml) for a period of 4 hours. The TNFα release was measured with the TNF-α cytoset™ from Biosource International, Camarillo, Calif., USA.

Jurkat cells (T-cells) = assay: Cell proliferation/viability of Jurkat cells, Alamar Blue test; conditions: exposure to sphingolipids
Protocol: as §1
Because sphingolipids can be cytotoxic to cells, the viability of the cells after exposure to the sphingolipids was checked with the Alamar Blue™ (Biosource) test. Almar blue™ (20 μL) and sphingolipids were added simultaneously. The Fluorescence (excitation at 540 nm and emission at 570 nm) was measured in a Wallac 1420 Victor^2 multilabel counter (Perkin Elmer Wellesley, Mass., USA).

Row | Structure (SMILES) | PMA/ionomycin-induced activation of the NFAT-mediated signal transduction pathway (luciferase activity) [1] | release of TNFα by LPS-stimulated macrophages [2] | cell viability of Jurkat cells (Alamar Blue fluorescence) (Jurkat cells (T-cells))
1 | CCCCCCCCCCCCC/C=C/[C@@H](O)[C@@H](N)CO [sphingosine] | completely suppressed | strongly reduced | No differences
2 | CCCCCCCCCCCCCC[C@@H](O)[C@@H](O)[C@@H](N)CO [phytosphingosine] | completely suppressed | strongly reduced | No differences
3 | CCCCCCCCCCCCCCC[C@@H](O)[C@@H](N)CO [sphinganine] | completely suppressed | strongly reduced | No differences
